Structures can show the parent of a compound that is named as a salt.
What was measured:
glucocorticoid receptor = biological target: T1, glucocorticoid receptor (Homo sapiens, UniProt P04150); test: Glucocorticoid receptor trafficking and GRE reporter plasmid transactivation in T cells; format: cell-based; settings: for potentiation of prednisolone's ability to transactivate a GRE reporter plasmid: T cells
T1 construct: endogenous in cells; host or cells: T cells
T1 sequence (P04150 1-777): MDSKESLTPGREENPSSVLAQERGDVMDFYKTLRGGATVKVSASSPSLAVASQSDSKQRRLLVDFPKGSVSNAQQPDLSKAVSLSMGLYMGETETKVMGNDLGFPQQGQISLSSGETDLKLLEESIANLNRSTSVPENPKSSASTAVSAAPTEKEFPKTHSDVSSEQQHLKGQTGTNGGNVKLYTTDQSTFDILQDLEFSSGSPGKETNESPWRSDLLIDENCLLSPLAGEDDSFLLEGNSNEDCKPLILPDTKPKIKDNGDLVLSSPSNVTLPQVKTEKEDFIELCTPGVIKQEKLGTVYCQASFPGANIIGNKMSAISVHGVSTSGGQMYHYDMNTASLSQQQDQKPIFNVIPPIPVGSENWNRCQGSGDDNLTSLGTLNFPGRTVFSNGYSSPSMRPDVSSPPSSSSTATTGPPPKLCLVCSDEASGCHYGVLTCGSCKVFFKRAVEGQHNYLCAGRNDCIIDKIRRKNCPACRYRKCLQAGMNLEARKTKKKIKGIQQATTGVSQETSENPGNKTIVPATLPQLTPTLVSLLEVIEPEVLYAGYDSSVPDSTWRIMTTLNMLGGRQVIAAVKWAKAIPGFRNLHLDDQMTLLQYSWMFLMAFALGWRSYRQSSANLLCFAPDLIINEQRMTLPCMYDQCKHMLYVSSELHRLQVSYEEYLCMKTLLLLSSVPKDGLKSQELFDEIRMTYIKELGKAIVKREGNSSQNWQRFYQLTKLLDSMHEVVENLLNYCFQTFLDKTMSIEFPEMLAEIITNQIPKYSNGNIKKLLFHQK

NFAT = NFAT activation, translocation and transactivation; format: cell-based
NFkB and AP1 = NFkB and AP1 activation; format: cell-based
p38, JNK, ERK = test: p38, JNK and ERK activation; format: cell-based
[1] = test system: LPS-induced TNF-α production; test: Acute in vivo model of inflammation (LPS-induced TNF-α release); settings: component alone (prednisolone at reduced dose)
joint swelling = test: Chronic in vivo arthritis model (adjuvant model), joint swelling; settings: component alone (prednisolone at reduced dose)
[2] = test system: carrageenan-induced paw edema; test: Rat carrageenan-induced paw edema model, paw volume; format: in vivo; settings: Amoxapine 2.26 mg/kg, foot pad, T-1 hr; Tmax = 6 hrs; listed as amoxapine (Amox)
Protocol: A dose-range finding study was performed to determine the anti-inflammatory activity of various ratios of methyl prednisolone acetate and amoxapine in a rat carrageenan-induced paw edema model. […] The molar ratio of methyl prednisolone acetate to amoxapine ranged from 1:1 to 1:300, using total doses of methyl prednisolone acetate of 0.01, 0.03 or 0.1 mg/kg.
The test agent (a combination of methyl prednisolone acetate and amoxapine), vehicle control, or reference agents (methyl prednisolone acetate, amoxapine, or Depo-Medrol®) were administered in the left hind foot pad of rats. After 60 minutes, paw edema was induced by injection of 100 μl of 1% carrageenan in the same foot pad. The paw volume was measured with a water displacement plethysmometer immediately prior to test agent injection (T−1h), at the time of carrageenan injection (T0h), and at T6h. Animals were euthanized by carbon dioxide inhalation. Paw tissue samples were collected and flash frozen in liquid nitrogen. Samples were assayed for TNF-α by enzyme-linked immunoassay (ELISA).

[3] = 200 mg/day orally; cited from earlier work
[4] = water; cited from earlier work
[5] = test system: mast cells and eosinophil activation

Row | promotion of glucocorticoid receptor trafficking (glucocorticoid receptor) | Compound | potentiation of prednisolone's ability to transactivate a GRE reporter plasmid (glucocorticoid receptor) | NFAT activation, translocation and transactivation (NFAT) | NFkB and AP1 activation (NFkB and AP1) | ERK activation (p38, JNK, ERK) | p38 and JNK activation (p38, JNK, ERK) | effect of the individual component alone [1] | effect of the individual component alone (joint swelling) | Edema ± SEM [2] | serum concentration [3] | solubility in water [4] | mast cells and eosinophil activation [5]
1 | does not promote | Fc1ccc(C2CCNCC2COc2ccc3c(c2)OCO3)cc1 (single isomer, unassigned; (-)) [paroxetine, (−)-trans-4 R-(4′-fluorophenyl)-3 S-[(3′,4′-methylenedioxyphenoxy)methyl]piperidine hydrochloride hemihydrate] | does not promote glucocorticoid receptor trafficking or potentiate | represses | inhibits | but not ERK activation | inhibition | – | – | – | – | – | –
2 | does not promote | Clc1ccc2c(c1)C(N1CCNCC1)=Nc1ccccc1O2 [amoxapine] | does not potentiate | block | partially inhibits | unaffected | Inhibition | modest or no benefit | modest or no benefit | not significantly different from the vehicle treatment | – | – | –
3 | – | CC(=O)N1CCN(c2ccc(OCC3COC(Cn4ccnc4)(c4ccc(Cl)cc4Cl)O3)cc2)CC1 (stereo not drawn) [ketoconazole] | – | – | – | – | – | – | – | – | about 3.2 micrograms | essentially insoluble in water | –
4 | – | CCOC(=O)N1CCC(=C2c3ccc(Cl)cc3CCc3cccnc32)CC1 [loratadine] | – | – | – | – | – | – | – | – | – | – | inhibits

— patent publication US20070299043A1, “Anti-scarring drug combinations and use thereof” (priority 2005, published 2007)
